Measured values reported in ChEMBL document CHEMBL3596112, “Sulfonium ions as inhibitors of the mycobacterial galactofuranosyltransferase GlfT2” (Medchemcomm, 2014).
Active and inactive are the calls of the source. No cut-off for these calls is given here.

Biological target: T1, Galactofuranosyltransferase GlfT2 (Mycobacterium tuberculosis) (UniProt O53585)
T1 sequence (whole entry): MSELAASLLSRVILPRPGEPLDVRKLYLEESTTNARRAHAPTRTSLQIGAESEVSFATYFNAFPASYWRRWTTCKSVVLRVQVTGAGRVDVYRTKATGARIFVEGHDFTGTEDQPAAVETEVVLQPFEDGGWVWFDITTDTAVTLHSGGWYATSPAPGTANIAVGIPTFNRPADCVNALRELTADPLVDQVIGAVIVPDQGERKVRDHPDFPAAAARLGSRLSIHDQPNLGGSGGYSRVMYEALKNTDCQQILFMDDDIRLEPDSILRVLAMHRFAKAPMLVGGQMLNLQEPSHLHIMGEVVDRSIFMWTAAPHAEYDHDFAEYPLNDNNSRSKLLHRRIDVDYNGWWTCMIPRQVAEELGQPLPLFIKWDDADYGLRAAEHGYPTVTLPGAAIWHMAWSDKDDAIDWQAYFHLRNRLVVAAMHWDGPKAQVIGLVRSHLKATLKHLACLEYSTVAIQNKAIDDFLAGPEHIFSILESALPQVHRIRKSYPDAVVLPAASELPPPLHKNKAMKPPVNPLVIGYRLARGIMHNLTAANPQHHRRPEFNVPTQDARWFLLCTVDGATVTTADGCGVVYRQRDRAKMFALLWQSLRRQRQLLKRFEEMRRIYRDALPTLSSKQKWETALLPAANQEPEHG
Experiment: Inhibition of Mycobacterium tuberculosis recombinant GlfT2 using beta-D-Galf-(1-5)-beta-D-Galf-(1-6)-beta-D-Galf-octyl as acceptor and UDP-Galf as donor substrate at 4 mM by coupled spectrophotometric assay

Row | Structure (SMILES) | inhibition
1 | OCCC[S+]1C[C@H]([C@H](O)CO)[C@H](O)C1 (some centres undefined) | inactive
2 | OC[C@@H](O)[C@H]1C[S+](CCc2ccccc2)C[C@H]1O (some centres undefined) | inactive
3 | O=c1ccn([C@@H]2O[C@H](COCCCC[S+]3C[C@H]([C@H](O)CO)[C@H](O)C3)[C@@H](O)[C@H]2O)c(=O)[nH]1 (some centres undefined) | inactive
4 | OCCCCCCCC[S+]1C[C@H]([C@H](O)CO)[C@H](O)C1 (some centres undefined) | inactive
5 | COCC[S+]1C[C@H]([C@H](O)CO)[C@H](O)C1 (some centres undefined) | inactive
6 | COCCCCCCCC[S+]1C[C@H]([C@H](O)CO)[C@H](O)C1 (some centres undefined) | inactive
7 | CCCCCCCC[S+]1C[C@H]([C@H](O)CO)[C@H](O)C1 (some centres undefined) | inactive
8 | CCC[S+]1C[C@H]([C@H](O)CO)[C@H](O)C1 (some centres undefined) | inactive
9 | OC[C@@H](O)[C@H]1C[S+](Cc2ccccc2)C[C@H]1O (some centres undefined) | inactive
10 | OC[C@@H](O)[C@H]1C[S+](CC2CCCCC2)C[C@H]1O (some centres undefined) | inactive
11 | OCCCCCCCCCCCC[S+]1C[C@H]([C@H](O)CO)[C@H](O)C1 (some centres undefined) | 60%
12 | CC(C)C[S+]1C[C@H]([C@H](O)CO)[C@H](O)C1 (some centres undefined) | inactive
13 | O=[N+]([O-])c1ccc(C[S+]2C[C@H]([C@H](O)CO)[C@H](O)C2)cc1 (some centres undefined) | inactive
14 | O=c1ccn([C@@H]2O[C@H](COCCC[S+]3C[C@H]([C@H](O)CO)[C@H](O)C3)[C@@H](O)[C@H]2O)c(=O)[nH]1 (some centres undefined) | inactive
